We go through eight compounds from US10092547B2, “Substituted aliphanes, cyclophanes, heteraphanes, heterophanes, hetero- heteraphanes and metallocenes useful for treating HCV infections” (priority 2011, dated 2018).

In one assay the test system is HCV replicon (NS5A1b). In words: microbe, parasite or virus in culture. To be noted: Hepatitis C virus, 72 h, HCV replicon-containing cells, three days. In kind it is cell-based. As for the experimental part:
(§1) Compounds claimed herein are tested for the ability to inhibit viral replication of the Hepatitis C replicon in cultured cells in which the HCV replicon construct has been incorporated. The HCV replicon system was described by Bartenschlager, et. al (Science, 285, pp. 110-113 (1999)). The replicon system is predictive of in vivo anti-HCV activity; compounds that are active in humans uniformly evidence activity in the replicon assay.
(§2) In this assay HCV replicon containing cells are treated with different concentrations of the test compound to ascertain the ability of the test compound to suppress replication of the HCV replicon. As a positive control, HCV replicon-containing cells are treated with different concentrations of interferon alpha, a known inhibitor of HCV replication. The replicon assay system includes Neomycin Phosphotransferase (NPT) as a component of the replicon itself in order to detect the transcription of replicon gene products in the host cell. Cells in which the HCV replicon is actively replicating have high levels of NPT; the level of NPT is proportional to HCV replication. […] The NPT level of each sample is measured using a captured ELISA.
(§3) A protocol for testing compounds for the ability to inhibit viral replication of the Hepatitis C replicon cultured cells in which the replicon construct has been incorporated, follows.
(§4) The HCV replicon contains, 5′-3′, the HCV-IRES, the neomycin phosphotransferase (neo) gene, the IRES of encephalomyocarditis virus, which directs translation of HCV sequences NS3 to NS5B, and the 3′-NTR. The sequence of the HCV replicon has been deposited in GenBank (Accession no. AJ242652).
(§5) The replicon is transfected into Huh-7 cells using standard methods such as electroporation.
(§6) The equipment and materials include, but are not limited to, Huh-7 HCV replicon-containing cells, maintenance media (DMEM (Dulbecco's modified Eagle media) supplemented with 10% FBS, L-glutamine, non-essential amino acids, penicillin (100 units/ml), streptomycin (100 micrograms/ml), and 500 micrograms/ml of Geneticin (G418), screening media (DMEM supplemented with 10% FBS, L-glutamine, non-essential amino acids, penicillin (100 units/ml) and streptomycin (100 micrograms/ml), 96 well tissue culture plates (flat bottom), 96 well plates (U bottom for drug dilution), Interferon alpha for positive control, fixation reagent (such as methanol: acetone), primary antibody (rabbit anti-NPTII), secondary antibody: Eu-N1 1, and enhancement solution.
(§7) HCV replicon-containing cells support high levels of viral RNA replicon replication when their density is suitable. Over-confluency causes decreased viral RNA replication. Therefore, cells must be kept growing in log phase in the presence of 500 micrograms/ml of G418. Generally, cells should be passed twice a week at 1:4-6 dilution. Cell maintenance is conducted as follows:
(§8) HCV replicon-containing cells are examined under a microscope to ensure that cells growing well. Cells are rinsed once with PBS and 2 ml trypsin is added. The cell/trypsin mixture is incubated at 37° C. in a CO2 incubator for 3-5 minutes. After incubation 10 ml of complete media is added to stop the trypsinization reaction. Cells are blown gently, put into a 15 ml tube, and spun at 1200 rpm for 4 minutes. The trypsin/medium solution is removed. Medium (5 ml) is added and the cells are mixed carefully. The cells are counted.
(§9) The cells are then seeded onto 96-well plates at a density of 6000-7500 cells/100 microliters/well (6-7.5×10^5 cells/10 ml/plate). The plates are then incubated at 37° C. in a 5% CO2 incubator.
(§10) Cells are examined under a microscope approximated 24 hours after seeding and prior to adding drugs. If counting and dilution were performed correctly, cells are 60-70% confluent and nearly all cells should attach and spread evenly in the well.
(§11) HCV replicon-containing cells are rinsed with once PBS once; 2 mls of trypsin are then added. Cells are incubated at 37° C. in a 5% CO2 incubator for 3-5 minutes. […]
For orientation: A replicon is a self-replicating genome or part of one, used to study replication in cells.

For assay [1], the system named is HCV replicon (NS5A1b) in Huh-7 cells. In words: microbe, parasite or virus in culture. Type of assay: cell-based. To be noted: Hepatitis C virus, 72 h; NS5A1b; HCV replicon-containing Huh-7 cells, three days; read-out: EC50 (μM) NS5A1b. On the procedure: as §1, §2, §3, §4, §5, §6, §7, §8, §9, §10, §11

Bounds are passed on as bounds.

One may read the EC50 as the concentration that produces a half-maximal response. For the compound `COC(=O)N[C@@H](CCSC)C(=O)N1C[C@H](F)C[C@H]1c1nc2cc(-c3cc4ccc3CCc3ccc(c(-c5ccc6[nH]c([C@@H]7C[C@@H](F)CN7C(=O)[C@H](CCSC)NC(=O)OC)nc6c5)c3)CC4)ccc2[nH]1` [Compound 88], the EC50 in the assay on HCV replicon (NS5A1b) was determined as 0.0618 µM; in assay [1], 6.43 nM. Regarding `COC(=O)N[C@H](C(=O)N1C2CCC(C2)[C@H]1c1nc2cc(-c3cc4ccc3CCc3ccc(c(-c5ccc6[nH]c([C@@H]7C8CCC(C8)N7C(=O)[C@@H](NC(=O)OC)C(C)C)nc6c5)c3)CC4)ccc2[nH]1)C(C)C` [Compound 42], the EC50 with HCV replicon (NS5A1b) is 0.0044 µM; in assay [1], < 3.2 nM. Taken in the same sequence, the figures for `CC[C@H](C)[C@H](NC(=O)OC)C(=O)N1CCC[C@H]1c1nc2cc(-c3cc4ccc3CCc3ccc(c(-c5ccc6[nH]c([C@@H]7CCCN7C(=O)[C@@H](NC(=O)OC)[C@@H](C)CC)nc6c5)c3)CC4)ccc2[nH]1` [Compound 103] were 0.47 µM and < 3.17 nM. Taken in the same sequence, the figures for `COC(=O)N[C@H](C(=O)N1CCC[C@H]1c1nc2cc(-c3cc4ccc3CCc3ccc(c(-c5ccc6[nH]c([C@@H]7CCCN7C(=O)[C@@H](NC(=O)OC)[C@@H](C)OC)nc6c5)c3)CC4)ccc2[nH]1)[C@@H](C)OC` [Compound 109] were 0.0118 µM and 8.83 nM. Taken in the same sequence, the figures for `CC[C@H](C)[C@H](NC(=O)OC)C(=O)N1[C@H](c2nc3cc(-c4cc5ccc4CCc4ccc(c(-c6ccc7[nH]c([C@@H]8C[C@@H]9CCCC[C@@H]9N8C(=O)[C@@H](NC(=O)OC)[C@@H](C)CC)nc7c6)c4)CC5)ccc3[nH]2)C[C@@H]2CCCC[C@@H]21` [Compound 102] were 0.0358 µM and 11.9 nM. Regarding `COC(=O)N[C@H](C(=O)N1C[C@H](F)C[C@H]1c1nc2cc(-c3cc4ccc3CCc3ccc(c(-c5ccc6[nH]c([C@@H]7C[C@@H](F)CN7C(=O)[C@@H](NC(=O)OC)C(C)C)nc6c5)c3)CC4)ccc2[nH]1)C(C)C` [Compound 87], the results for the 50% effective concentration (EC50) (in the assay with HCV replicon (NS5A1b); in assay [1]) were 0.0184 µM and 6.53 nM, respectively. Regarding `COC(=O)N1CCC[C@H]1C(=O)N1CCC[C@H]1c1nc2cc(-c3cc4ccc3CCc3ccc(c(-c5ccc6[nH]c([C@@H]7CCCN7C(=O)[C@@H]7CCCN7C(=O)OC)nc6c5)c3)CC4)ccc2[nH]1` [Compound 51], the EC50 in assay [1] was > 1000 nM. For `COC(=O)N[C@H](C(=O)N1[C@H](c2nc3cc(-c4cc5ccc4CCc4ccc(c(-c6ccc7[nH]c([C@@H]8C[C@@H]9CCCC[C@@H]9N8C(=O)[C@@H](NC(=O)OC)[C@@H](C)OC)nc7c6)c4)CC5)ccc3[nH]2)C[C@@H]2CCCC[C@@H]21)[C@@H](C)OC` [Compound 111], the EC50 in assay [1] amounted to 0.005 nM.
